Reference: PubChem BioAssay AID2060895 (Molecular Pharmacology Branch, DTP, NCI, 2025)
pIC50: −log10 of the molar value.

Test system: PDC 899932-113-R3-J6 complex spheroid viability
Assay: Anticancer human tumor 899932-113-R3-J6-PDC patient-derived melanoma cell line growth inhibition [RAS]
Conditions: for pIC50: curve of first compound; for viability, T/C: stronger effect = lower value
Method in brief: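 Tumour cells grown as complex spheroids with HUVEC endothelial cells and mesenchymal stem cells, treated with RAS pathway inhibitor combinations. Each agent spans half-log steps from near clinical Cmax, or 10 microM where Cmax is unknown.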

[1] = second compound 0.000949 µM, first compound 0.0316 µM
[2] = second compound 0.000949 µM, first compound 0.1 µM
[3] = second compound 0.000949 µM, first compound 0.316 µM
[4] = second compound 0.000949 µM, first compound 1 µM
[5] = second compound 0.003 µM, first compound 0.0316 µM
[6] = second compound 0.003 µM, first compound 0.1 µM
[7] = second compound 0.003 µM, first compound 0.316 µM
[8] = second compound 0.003 µM, first compound 1 µM
[9] = second compound 0.00949 µM, first compound 0.0316 µM
[10] = second compound 0.00949 µM, first compound 0.1 µM
[11] = second compound 0.00949 µM, first compound 0.316 µM
[12] = second compound 0.00949 µM, first compound 1 µM
[13] = second compound 0.03 µM, first compound 0.0316 µM
[14] = second compound 0.03 µM, first compound 0.1 µM
[15] = second compound 0.03 µM, first compound 0.316 µM
[16] = second compound 0.03 µM, first compound 1 µM
[17] = second compound 0.0949 µM, first compound 0.0316 µM
[18] = second compound 0.0949 µM, first compound 0.1 µM
[19] = second compound 0.0949 µM, first compound 0.316 µM
[20] = second compound 0.0949 µM, first compound 1 µM
[21] = second compound 0.3 µM, first compound 0.0316 µM
[22] = second compound 0.3 µM, first compound 0.1 µM
[23] = second compound 0.3 µM, first compound 0.316 µM
[24] = second compound 0.3 µM, first compound 1 µM
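Throughout, for viability, T/C: spheroids exposed to agents for seven days before readout; 100% = DMSO vehicle control wells.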

CC(=O)OC12COC1CC(O)C1(C)C(=O)C(O)C3=C(C)C(OC(=O)C(O)C(NC(=O)OC(C)(C)C)c4ccccc4)CC(O)(C(OC(=O)c4ccccc4)C21)C3(C)C (stereo unspecified) + CCn1c(-c2cc(N3CCN(C)CC3)cnc2C(C)OC)c2c3cc(ccc31)-c1csc(n1)CC(NC(=O)C1CC1C)C(=O)N1CCCC(N1)C(=O)OCC(C)(C)C2
pIC50 (second compound 0.000949 µM): > 7.50 | pIC50 (second compound 0.003 µM): > 7.50 | pIC50 (second compound 0.00949 µM): > 7.50 | pIC50 (second compound 0.03 µM): > 7.50 | pIC50 (second compound 0.0949 µM): > 7.50 | pIC50 (second compound 0.3 µM): > 7.50 | viability, T/C [1]: 18.6% | viability, T/C [2]: 18.4% | viability, T/C [3]: 26.5% | viability, T/C [4]: 36.3% | viability, T/C (second compound 0.000949 µM, first compound 3.16 µM): 45.5% | viability, T/C (second compound 0.000949 µM, first compound 10 µM): 47.2% | viability, T/C [5]: 8.34% | viability, T/C [6]: 10.3% | viability, T/C [7]: 12.4% | viability, T/C [8]: 14.1% | viability, T/C (second compound 0.003 µM, first compound 3.16 µM): 18.3% | viability, T/C (second compound 0.003 µM, first compound 10 µM): 21.1% | viability, T/C [9]: 3.98% | viability, T/C [10]: 3.52% | viability, T/C [11]: 3.63% | viability, T/C [12]: 3.09% | viability, T/C (second compound 0.00949 µM, first compound 3.16 µM): 3.96% | viability, T/C (second compound 0.00949 µM, first compound 10 µM): 4.11% | viability, T/C [13]: 2.05% | viability, T/C [14]: 1.55% | viability, T/C [15]: 1.79% | viability, T/C [16]: 1.78% | viability, T/C (second compound 0.03 µM, first compound 3.16 µM): 1.72% | viability, T/C (second compound 0.03 µM, first compound 10 µM): 1.3% | viability, T/C [17]: 1.14% | viability, T/C [18]: 1.02% | viability, T/C [19]: 1.61% | viability, T/C [20]: 0.79% | viability, T/C (second compound 0.0949 µM, first compound 3.16 µM): 0.68% | viability, T/C (second compound 0.0949 µM, first compound 10 µM): 0.72% | viability, T/C [21]: 1.95% | viability, T/C [22]: 0.96% | viability, T/C [23]: 1.47% | viability, T/C [24]: 0.52% | viability, T/C (second compound 0.3 µM, first compound 3.16 µM): 0.57% | viability, T/C (second compound 0.3 µM, first compound 10 µM): 0.59%

CCc1c2c(nc3ccc(O)cc13)-c1cc3c(c(=O)n1C2)COC(=O)[C@]3(O)CC + CCn1c(-c2cc(N3CCN(C)CC3)cnc2C(C)OC)c2c3cc(ccc31)-c1csc(n1)CC(NC(=O)C1CC1C)C(=O)N1CCCC(N1)C(=O)OCC(C)(C)C2
pIC50 (second compound 0.000949 µM): 8.70 | pIC50 (second compound 0.003 µM): > 9.02 | pIC50 (second compound 0.00949 µM): > 9.02 | pIC50 (second compound 0.03 µM): > 9.02 | pIC50 (second compound 0.0949 µM): > 9.02 | pIC50 (second compound 0.3 µM): > 9.02 | viability, T/C (second compound 0.000949 µM, first compound 0.000949 µM): 63.8% | viability, T/C (second compound 0.000949 µM, first compound 0.003 µM): 39.8% | viability, T/C (second compound 0.000949 µM, first compound 0.00949 µM): 36% | viability, T/C (second compound 0.000949 µM, first compound 0.03 µM): 26.9% | viability, T/C (second compound 0.000949 µM, first compound 0.0949 µM): 22.6% | viability, T/C (second compound 0.000949 µM, first compound 0.3 µM): 23% | viability, T/C (second compound 0.003 µM, first compound 0.000949 µM): 31.1% | viability, T/C (second compound 0.003 µM, first compound 0.003 µM): 24.2% | viability, T/C (second compound 0.003 µM, first compound 0.00949 µM): 16.4% | viability, T/C (second compound 0.003 µM, first compound 0.03 µM): 16.1% | viability, T/C (second compound 0.003 µM, first compound 0.0949 µM): 13.4% | viability, T/C (second compound 0.003 µM, first compound 0.3 µM): 14% | viability, T/C (second compound 0.00949 µM, first compound 0.000949 µM): 3.79% | viability, T/C (second compound 0.00949 µM, first compound 0.003 µM): 3.32% | viability, T/C (second compound 0.00949 µM, first compound 0.00949 µM): 3.11% | viability, T/C (second compound 0.00949 µM, first compound 0.03 µM): 3.28% | viability, T/C (second compound 0.00949 µM, first compound 0.0949 µM): 3.1% | viability, T/C (second compound 0.00949 µM, first compound 0.3 µM): 3.34% | viability, T/C (second compound 0.03 µM, first compound 0.000949 µM): 2.49% | viability, T/C (second compound 0.03 µM, first compound 0.003 µM): 2.47% | viability, T/C (second compound 0.03 µM, first compound 0.00949 µM): 2.92% | viability, T/C (second compound 0.03 µM, first compound 0.03 µM): 2.25% | viability, T/C (second compound 0.03 µM, first compound 0.0949 µM): 2.41% | viability, T/C (second compound 0.03 µM, first compound 0.3 µM): 2.31% | viability, T/C (second compound 0.0949 µM, first compound 0.000949 µM): 2.12% | viability, T/C (second compound 0.0949 µM, first compound 0.003 µM): 2.87% | viability, T/C (second compound 0.0949 µM, first compound 0.00949 µM): 2.12% | viability, T/C (second compound 0.0949 µM, first compound 0.03 µM): 2.27% | viability, T/C (second compound 0.0949 µM, first compound 0.0949 µM): 1.31% | viability, T/C (second compound 0.0949 µM, first compound 0.3 µM): 1.12% | viability, T/C (second compound 0.3 µM, first compound 0.000949 µM): 1.75% | viability, T/C (second compound 0.3 µM, first compound 0.003 µM): 2.65% | viability, T/C (second compound 0.3 µM, first compound 0.00949 µM): 2.22% | viability, T/C (second compound 0.3 µM, first compound 0.03 µM): 1.86% | viability, T/C (second compound 0.3 µM, first compound 0.0949 µM): 1.47% | viability, T/C (second compound 0.3 µM, first compound 0.3 µM): 1.58%

Nc1ccn(C2OC(CO)C(O)C2(F)F)c(=O)n1 (stereo unspecified) + CCn1c(-c2cc(N3CCN(C)CC3)cnc2C(C)OC)c2c3cc(ccc31)-c1csc(n1)CC(NC(=O)C1CC1C)C(=O)N1CCCC(N1)C(=O)OCC(C)(C)C2
pIC50 (second compound 0.000949 µM): 8.23 | pIC50 (second compound 0.003 µM): > 8.50 | pIC50 (second compound 0.00949 µM): > 8.50 | pIC50 (second compound 0.03 µM): > 8.50 | pIC50 (second compound 0.0949 µM): > 8.50 | pIC50 (second compound 0.3 µM): > 8.50 | viability, T/C (second compound 0.000949 µM, first compound 0.00316 µM): 62.9% | viability, T/C (second compound 0.000949 µM, first compound 0.01 µM): 38.6% | viability, T/C [1]: 19.2% | viability, T/C [2]: 10.9% | viability, T/C [3]: 10.9% | viability, T/C [4]: 12.7% | viability, T/C (second compound 0.003 µM, first compound 0.00316 µM): 34.1% | viability, T/C (second compound 0.003 µM, first compound 0.01 µM): 22.6% | viability, T/C [5]: 9.17% | viability, T/C [6]: 6.99% | viability, T/C [7]: 7.8% | viability, T/C [8]: 7.27% | viability, T/C (second compound 0.00949 µM, first compound 0.00316 µM): 3.07% | viability, T/C (second compound 0.00949 µM, first compound 0.01 µM): 3.15% | viability, T/C [9]: 3.74% | viability, T/C [10]: 3.5% | viability, T/C [11]: 3.59% | viability, T/C [12]: 3.95% | viability, T/C (second compound 0.03 µM, first compound 0.00316 µM): 2.89% | viability, T/C (second compound 0.03 µM, first compound 0.01 µM): 2.31% | viability, T/C [13]: 3.09% | viability, T/C [14]: 3.08% | viability, T/C [15]: 2.1% | viability, T/C [16]: 2.81% | viability, T/C (second compound 0.0949 µM, first compound 0.00316 µM): 2.38% | viability, T/C (second compound 0.0949 µM, first compound 0.01 µM): 1.69% | viability, T/C [17]: 2.42% | viability, T/C [18]: 2.17% | viability, T/C [19]: 1.85% | viability, T/C [20]: 2.61% | viability, T/C (second compound 0.3 µM, first compound 0.00316 µM): 1.86% | viability, T/C (second compound 0.3 µM, first compound 0.01 µM): 2% | viability, T/C [21]: 2.22% | viability, T/C [22]: 2.4% | viability, T/C [23]: 2.26% | viability, T/C [24]: 1.79%
